The target in this assay is Cezanne 1 (Homo sapiens (Human), UniProt Q6GQQ9). The assay can be described thus: Cezanne 1 biochemical IC50 assay (fluorescence polarisation, TAMRA labelled peptide linked to ubiquitin). To be noted: Cezanne 1 biochemical IC50 assay; 30 min pre-incubation, read after 2 hr at room temperature; read-out: IC50 range. The procedure: The Cezanne 1 construct was PCR amplified and cloned into a pFLAG-CMV-6c vector (Sigma-Aldrich) with an N-terminal FLAG tag. HEK293T cells were transfected with FLAG-Cezanne 1 using TransIT-LT1 transfection reagent (Mirus) according to the manufacturer's instructions. Cells were harvested 48 hours after transfection. […] The resin was washed two times with low salt buffer and one time with high salt buffer (20 mM Tris, pH 7.5, 500 mM NaCl, 0.5 mM EDTA, 5 mM beta-mercaptoethanol, protease inhibitors (complete mini, Roche) and phosphatase inhibitors (PhosSTOP mini, Roche). To elute the bound Cezanne 1, elution buffer (10 mM Tris, pH 7.5, 150 mM NaCl, 0.5 mM EDTA, 10% glycerol, 0.5% NP40, 5 mM beta-mercaptoethanol, 0.15 mg/ml 3× FLAG peptide (Sigma-Aldrich)) was added to the resin and incubated at 4° C. for 2.5 hours while rotating. The resin was centrifuged at 4000 rpm for 30 seconds, and the supernatant containing purified FLAG-Cezanne 1 was removed and stored at −80° C. […] Dilution plates were prepared at 21 times the final concentration (2100 μM for a final concentration of 100 μM) in 50% DMSO in a 96-well polypropylene V-bottom plate (Greiner #651201). […] Reactions were performed in duplicate in black 384 well plates (small volume, Greiner 784076) in a final reaction volume of 21 μl. Either 1 μl of 50% DMSO or diluted compound was added to the plate. Cezanne 1 was diluted in reaction buffer (40 mM Tris, pH 7.5, 0.005% Tween 20, 0.5 mg/ml BSA, 5 mM—beta-mercaptoethanol) to the equivalent of 0.005 μl/well and 10 μl of diluted Cezanne 1 was added to the compound. Enzyme and compound were incubated for 30 min at room temp. Reactions were initiated by the addition of 50 nM of TAMRA labelled peptide linked to ubiquitin via an iso-peptide bond as fluorescence polarisation substrate. Reactions were read immediately after addition of substrate and following a 2 hr incubation at room temperature. Readings were performed on a Pherastar Plus (BMG Labtech). λ Excitation 540 nm; λ Emission 590 nm.

The values that follow come from US10654853B2, “Spiro-condensed pyrrolidine derivatives as deubiquitylating enzymes (DUB) inhibitors” (MISSION THERAPEUTICS LIMITED, priority 2016, dated 2020).

Sequence of Cezanne 1 (Q6GQQ9 whole entry): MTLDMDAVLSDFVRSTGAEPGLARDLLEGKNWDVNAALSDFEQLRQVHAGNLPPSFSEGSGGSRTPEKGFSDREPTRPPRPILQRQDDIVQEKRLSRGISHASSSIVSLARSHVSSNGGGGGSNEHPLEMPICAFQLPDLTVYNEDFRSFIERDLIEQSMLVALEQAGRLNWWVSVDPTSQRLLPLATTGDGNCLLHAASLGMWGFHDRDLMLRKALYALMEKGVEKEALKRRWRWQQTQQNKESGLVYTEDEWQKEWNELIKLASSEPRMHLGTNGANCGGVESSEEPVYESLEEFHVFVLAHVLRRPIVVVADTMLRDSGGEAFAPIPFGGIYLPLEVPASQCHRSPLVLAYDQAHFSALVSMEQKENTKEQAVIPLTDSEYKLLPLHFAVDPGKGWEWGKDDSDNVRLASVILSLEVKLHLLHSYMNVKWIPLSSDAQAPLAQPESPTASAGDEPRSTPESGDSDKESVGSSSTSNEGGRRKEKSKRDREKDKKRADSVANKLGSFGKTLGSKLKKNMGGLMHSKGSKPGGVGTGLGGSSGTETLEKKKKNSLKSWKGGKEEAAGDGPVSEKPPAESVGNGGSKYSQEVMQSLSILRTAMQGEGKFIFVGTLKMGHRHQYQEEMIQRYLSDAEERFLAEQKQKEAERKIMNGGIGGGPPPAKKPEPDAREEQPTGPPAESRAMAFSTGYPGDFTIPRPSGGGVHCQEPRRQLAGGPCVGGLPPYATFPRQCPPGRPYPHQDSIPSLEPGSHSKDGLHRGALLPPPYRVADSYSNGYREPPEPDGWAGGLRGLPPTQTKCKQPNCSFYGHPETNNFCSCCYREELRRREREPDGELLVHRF

As for `N#CN1CC[C@@]2(C1)Nc1ncccc1NC2=O` [Example 66, (S)-2-Oxo-1,4-dihydro-2H-spiro[pyrido[2,3-b]pyrazine-3,3′-pyrrolidine]-1′-carbonitrile], the IC50 lay in the range of 100 to 1000 nM. For `N#CN1CC[C@]2(Cc3cc(-c4ccccc4)ccc3NC2=O)C1` [Example 67, (R)-2′-Oxo-6′-phenyl-1′,4′-dihydro-2′H-spiro[pyrrolidine-3,3′-quinoline]-1-carbonitrile], the IC50 was in the range of 100 to 1000 nM. Regarding `N#CN1CC[C@@]2(C1)Nc1ncc(-c3ccccc3)cc1NC2=O` [Example 68, (S)-2-Oxo-7-phenyl-1,4-dihydro-2H-spiro[pyrido[2,3-b]pyrazine-3,3′-pyrrolidine]-1′-carbonitrile], the IC50 fell in the range of 100 to 1000 nM.

As to `N#CN1CC[C@@]2(C1)Oc1ncc(-c3cccc(F)c3)cc1NC2=O` [Example 69, (S)-7-(3-Fluorophenyl)-2-oxo-1,2-dihydrospiro[pyrido[2,3-b][1,4]oxazine-3,3′-pyrrolidine]-1′-carbonitrile], the half-inhibitory concentration (IC50) lay in the range of 100 to 1000 nM. `N#Cc1ccc(-c2cnc3c(c2)NC(=O)[C@@]2(CCN(C#N)C2)O3)cc1` [Example 70, (S)-7-(4-Cyanophenyl)-2-oxo-1,2-dihydrospiro[pyrido[2,3-b][1,4]oxazine-3,3′-pyrrolidine]-1′-carbonitrile]: the IC50 lay in the range of 100 to 1000 nM. In the case of `N#Cc1cccc(-c2cnc3c(c2)NC(=O)[C@@]2(CCN(C#N)C2)O3)c1` [Example 71, (S)-7-(3-Cyanophenyl)-2-oxo-1,2-dihydrospiro[pyrido[2,3-b][1,4]oxazine-3,3′-pyrrolidine]-1′-carbonitrile], the half-inhibitory concentration (IC50) was in the range of 100 to 1000 nM. As to `N#CN1CC[C@@]2(C1)Nc1ncc(-c3ccc(F)cc3)cc1NC2=O` [Example 72, (S)-7-(4-Fluorophenyl)-2-oxo-1,4-dihydro-2H-spiro[pyrido[2,3-b]pyrazine-3,3′-pyrrolidine]-1′-carbonitrile], the IC50 was in the range of 100 to 1000 nM. As to `N#CN1CC[C@@]2(C1)Nc1ncc(-c3cccc(F)c3)cc1NC2=O` [Example 73, (S)-7-(3-Fluorophenyl)-2-oxo-1,4-dihydro-2H-spiro[pyrido[2,3-b]pyrazine-3,3′-pyrrolidine]-1′-carbonitrile], the IC50 is 100 to 1000 nM. For the compound `N#CN1CC[C@@]2(C1)Oc1ncc(-c3ccc(F)cc3)cc1NC2=O` [Example 74, (S)-7-(4-Fluorophenyl)-2-oxo-1,2-dihydrospiro[pyrido[2,3-b][1,4]oxazine-3,3′-pyrrolidine]-1′-carbonitrile], the IC50 fell in the range of 100 to 1000 nM. As to `N#Cc1cccc(-c2cnc3c(c2)NC(=O)[C@@]2(CCN(C#N)C2)N3)c1` [Example 75, (S)-7-(3-Cyanophenyl)-2-oxo-1,4-dihydro-2H-spiro[pyrido[2,3-b]pyrazine-3,3′-pyrrolidine]-1′-carbonitrile], the IC50 is 100 to 1000 nM. The value for `C[C@H]1NC(=O)C2(CCN(C#N)C2)NC1=O` (stereo partly drawn) [Example 76, (8R)-8-Methyl-7,10-dioxo-2,6,9-triazaspiro[4.5]decane-2-carbonitrile] was 1000 to 10000 nM; that for `N#CN1CCC2(C1)NC(=O)CNC2=O` (stereo not drawn) [Example 77, 7,10-Dioxo-2,6,9-triazaspiro[4.5]decane-2-carbonitrile] was 1000 to 10000 nM. For the compound `C[C@@H]1NC(=O)C2(CCN(C#N)C2)NC1=O` (stereo partly drawn) [Example 78, (8S)-8-Methyl-7,10-dioxo-2,6,9-triazaspiro[4.5]decane-2-carbonitrile], the IC50 lay within 1000 to 10000 nM. With `N#CN1CCC2(C1)NC(=O)C(c1ccccc1)NC2=O` (stereo not drawn) [Example 79, 7,10-Dioxo-8-phenyl-2,6,9-triazaspiro[4.5]decane-2-carbonitrile], the half-inhibitory concentration (IC50) lay within 1000 to 10000 nM.

For the compound `CCC1CC2(CCN(C#N)C2)C(=O)N1` (stereo not drawn) [Example 80, 8-Ethyl-6-oxo-2,7-diazaspiro[4.4]nonane-2-carbonitrile], the IC50 is above 10000 nM. `N#CN1CCC2(CC(Cc3ccccc3)NC2=O)C1` (stereo not drawn) [Example 81, 8-Benzyl-6-oxo-2,7-diazaspiro[4.4]nonane-2-carbonitrile]: the IC50 lay within 1000 to 10000 nM.

Turning to `N#CN1CCC2(C1)OCc1ccccc1NC2=O` (stereo not drawn) [Example 85, 2-Oxo-1,5-dihydro-2H-spiro[benzo[e][1,4]oxazepine-3,3′-pyrrolidine]-1′-carbonitrile], the IC50 was 1000 to 10000 nM. In the case of `N#CN1CCC2(CNc3ncccc3NC2=O)C1` (stereo not drawn) [Example 86, 2-Oxo-1,2,4,5-tetrahydrospiro[pyrido[2,3-b][1,4]diazepine-3,3′-pyrrolidine]-1′-carbonitrile], the 50% inhibitory concentration (IC50) lay within 100 to 1000 nM. On to `CC1(c2ccccc2)NC(=O)C2(CCN(C#N)C2)NC1=O` (stereo not drawn) [Example 87, 8-Methyl-7,10-dioxo-8-phenyl-2,6,9-triazaspiro[4.5]decane-2-carbonitrile], for which the IC50 lay within 100 to 1000 nM.

Take `N#CN1CCC2(Cc3ccc(-c4cccc(OC(F)(F)F)c4)cc3NC2=O)C1` (stereo not drawn) [Example 88, 2′-Oxo-7′-(3-(trifluoromethoxy)phenyl)-1′,4′-dihydro-2′H-spiro[pyrrolidine-3,3′-quinoline]-1-carbonitrile]: the concentration for half-maximal inhibition (IC50) is 1000 to 10000 nM. For `CN(C)C(=O)c1ccc(-c2ccc3c(c2)NC(=O)C2(CCN(C#N)C2)C3)cc1` (stereo not drawn) [Example 89, 4-(1-Cyano-2′-oxo-1′,4′-dihydro-2′H-spiro[pyrrolidine-3,3′-quinolin]-7′-yl)-N,N-dimethylbenzamide], the half-inhibitory concentration (IC50) fell in the range of 1000 to 10000 nM. As for `Cn1nccc1-c1ccc2c(c1)CC1(CCN(C#N)C1)C(=O)N2` (stereo not drawn) [Example 94, 6′-(1-Methyl-1H-pyrazol-5-yl)-2′-oxo-1′,4′-dihydro-2′H-spiro[pyrrolidine-3,3′-quinoline]-1-carbonitrile], the IC50 fell in the range of 100 to 1000 nM. `N#CN1CCC2(Cc3cc(-c4cccc(OC(F)(F)F)c4)ccc3NC2=O)C1` (stereo not drawn) [Example 95, 2′-Oxo-6′-(3-(trifluoromethoxy)phenyl)-1′,4′-dihydro-2′H-spiro[pyrrolidine-3,3′-quinoline]-1-carbonitrile]: the 50% inhibitory concentration (IC50) lay in the range of 100 to 1000 nM. The value for `N#CN1CCC2(Cc3cc(-c4ccc(Oc5ccccc5)cc4)ccc3NC2=O)C1` (stereo not drawn) [Example 96, 2′-Oxo-6′-(4-phenoxyphenyl)-1′,4′-dihydro-2′H-spiro[pyrrolidine-3,3′-quinoline]-1-carbonitrile] was 1000 to 10000 nM.

For the compound `Cn1cc(-c2ccc3c(c2)CC2(CCN(C#N)C2)C(=O)N3)cn1` (stereo not drawn) [Example 97, 6′-(1-Methyl-1H-pyrazol-4-yl)-2′-oxo-1′,4′-dihydro-2′H-spiro[pyrrolidine-3,3′-quinoline]-1-carbonitrile], the IC50 lay in the range of 100 to 1000 nM. Regarding `CNC(=O)c1ccc(-c2ccc3c(c2)CC2(CCN(C#N)C2)C(=O)N3)cn1` (stereo not drawn) [Example 98, 5-(1-Cyano-2′-oxo-1′,4′-dihydro-2′H-spiro[pyrrolidine-3,3′-quinolin]-6′-yl)-N-methylpicolinamide], the IC50 fell in the range of 100 to 1000 nM. The value for `CNC(=O)c1ccc(-c2ccc3c(c2)CC2(CCN(C#N)C2)C(=O)N3)cc1` (stereo not drawn) [Example 100, 4-(1-Cyano-2′-oxo-1′,4′-dihydro-2′H-spiro[pyrrolidine-3,3′-quinolin]-6′-yl)-N-methylbenzamide] was 100 to 1000 nM; that for `COc1ccc(C(C)C)cc1-c1ccc2c(c1)CC1(CCN(C#N)C1)C(=O)N2` (stereo not drawn) [Example 101, 6′-(5-Isopropyl-2-methoxyphenyl)-2′-oxo-1′,4′-dihydro-2′H-spiro[pyrrolidine-3,3′-quinoline]-1-carbonitrile] was 100 to 1000 nM; that for `N#CN1CCC2(Cc3cc(-c4cccc(OCc5ccccc5Cl)c4)ccc3NC2=O)C1` (stereo not drawn) [Example 102, 6′-(3-((2-Chlorobenzyl)oxy)phenyl)-2′-oxo-1′,4′-dihydro-2′H-spiro[pyrrolidine-3,3′-quinoline]-1-carbonitrile] was 1000 to 10000 nM. Regarding `COc1ccc(-c2ccc3c(c2)CC2(CCN(C#N)C2)C(=O)N3)cn1` (stereo not drawn) [Example 103, 6′-(6-Methoxypyridin-3-yl)-2′-oxo-1′,4′-dihydro-2′H-spiro[pyrrolidine-3,3′-quinoline]-1-carbonitrile], the 50% inhibitory concentration (IC50) is 100 to 1000 nM. The same measure for `CC(C)Oc1ccc(F)cc1-c1ccc2c(c1)CC1(CCN(C#N)C1)C(=O)N2` (stereo not drawn) [Example 104, 6′-(5-Fluoro-2-isopropoxyphenyl)-2′-oxo-1′,4′-dihydro-2′H-spiro[pyrrolidine-3,3′-quinoline]-1-carbonitrile]: 100 to 1000 nM. For the compound `CN1CCN(C(=O)c2ccc(-c3ccc4c(c3)CC3(CCN(C#N)C3)C(=O)N4)cc2)CC1` (stereo not drawn) [Example 106, 6′-(4-(4-Methylpiperazine-1-carbonyl)phenyl)-2′-oxo-1′,4′-dihydro-2′H-spiro[pyrrolidine-3,3′-quinoline]-1-carbonitrile], the IC50 lay in the range of 1000 to 10000 nM. The value for `Cn1ncc2cc(-c3ccc4c(c3)CC3(CCN(C#N)C3)C(=O)N4)ccc21` (stereo not drawn) [Example 107, 6′-(1-Methyl-1H-indazol-5-yl)-2′-oxo-1′,4′-dihydro-2′H-spiro[pyrrolidine-3,3′-quinoline]-1-carbonitrile] was 100 to 1000 nM.

As a reminder, the IC50 is the point on the concentration scale where inhibition reaches its midpoint.
